Reference: US12139481B2, “Compositions comprising macrocycle derivatives incorporating bridged macrocycles and methods of producing and using same” (Southwestern Oklahoma State University, priority 2015, dated 2024)
Where two headings read alike, the source gives them in different places.

Tests used:
[1] = test system: L. donovani promastigotes; experiment: Antileishmanial Alamar Blue assay on promastigotes; format: cell-based, Leishmania donovani; settings: for X more potent than Pentamidine: L. donovani, ratio of molar IC50 to Pentamidine
Experimental: Methods: The compounds were screened in vitro against the promastigote forms of the leishmania parasites employing the Alamar Blue assay as discussed below.
Antileishmanial activity of the compounds was tested in vitro against a culture of L. donovani promastigotes, grown in RPMI 1640 medium supplemented with 10% fetal calf serum (FCS, Gibco Chem. Co., Grand Island, NY) at 26° C. A 3-day-old culture was diluted to 5×10^5 promastigotes/mL. Drug dilutions (50-3.1 μg/mL) were prepared directly in cell suspension in 96-well plates. Plates were incubated at 26° C. for 48 hours, and growth of leishmania promastigotes was determined by Alamar Blue assay. Standard fluorescence was measured on a FLUOstar® Galaxy plate reader (BMG Lab Technologies, Ortenberg, Germany) at an excitation wavelength of 544 nm and emission wavelength of 590 nm. Pentamidine and amphotericin B were used as the standard antileishmanial agents. Percent growth was calculated and plotted versus test concentration for computing the IC50 values.

[2] = test system: Cryptococcus neoformans ATCC 90113; experiment: Antimicrobial microdilution assay against Cryptococcus neoformans (modified CLSI/NCCLS, optical density); format: cell-based; settings: for X more potent than Amphotericin B: C. neoformans, ratio of molar IC50 to Amphotericin B; for C. neoformans IC50 / IC50: in vitro, C. neoformans ATCC 90113; for IC50: read-out: C. neoformans IC50 (mol/L)
Experimental: Summary: Various macrocyclic derivatives constructed in accordance with the presently disclosed and/or claimed inventive concept(s) were screened in vitro against Cryptococcus neoformans ATCC 90113 using a microdilution assay. The minimum fungicidal concentration (MFC), the lowest test concentration that kills the organism, was determined in broth media.
Antimicrobial assay: Cryptococcus neoformans ATCC 90113 were obtained from the American Type Culture Collection (Manassas, VA.). The susceptibility testing was performed using a modified version of the CLSI (formerly NCCLS) methods (see below), and optical density was used to monitor growth. Samples were serially diluted in 20% DMSO/saline and transferred in duplicate to 96-well flat bottom microplates. Microbial inocula were prepared by correcting the OD630 of cell/spore suspensions in incubation broth RPMI at pH 6.0 to afford final desired target inocula. Amphotericin B (“AMB;” ICN Biomedicals, OH) was used as drug control. The organism concentration was read at 630 nm using the Biotek Powerwave XS plate reader (Bio-Tek instruments, VT) prior to and after incubation. Minimum fungicidal concentrations were determined by removing 5 μL from each clear well, transferring to agar, and incubating until growth was seen. The MFC/MBC is defined as the lowest test concentration that kids the organism (allows no growth on agar).
References for NCCLS methods referenced above: 1 NCCLS. Reference method for broth dilution antifungal susceptibility testing of yeasts, Vol. 22. Approved standard, 2nd ed. Wayne: National Committee for Clinical Laboratory Standards; 2002: 1-51. 2 NCCLS. Reference method for broth dilution antifungal susceptibility testing of conidium forming filamentous fungi, Vol. 18. Proposed standard M38-P. Wayne: National Committee for Clinical Laboratory Standards; 1998: 1-39. 3 NCCLS. Methods for dilution antimicrobial susceptibility tests for bacteria that grow aerobically, Vol. 20. NCCLS Document M7-A5. Wayne: National Committee for Clinical Laboratory Standards; 2000: 1-58.
The term “IC50” as used herein will be understood to refer to a test concentration in mol/L that affords 50% inhibition of the microbe relative to negative and positive controls. […] The abbreviation “MFC” as used herein will be understood to refer to a minimum fungicidal concentration, or the lowest test concentration in mol/L that kills the organism. All IC50s are calculated using the XLfit® fit curve fitting software (ID Business Solutions Ltd, Guildford, Surrey, UK).
General Experimental Procedures. All organisms were obtained from the American Type Culture Collection (Manassas, VA) and include the fungi Candida albicans ATCC 90028, C. glabrata ATCC 90030, C. krusei ATCC 6258, and Cryptococcus neoformans ATCC 90113, and the bacteria Staphylococcus aureus ATCC 29213 and methicillin-resistant S. aureus ATCC 33591 (MRS). All organisms were tested using modified versions of the CLSI (formerly NCCLS) methods. For all organisms, optical density was used to monitor growth (NCCLS, Reference Method for Broth Dilution Antifungal Susceptibility Testing of Yeasts; Approved Standard M27-A2. National Committee on Clinical Laboratory Standards, 2002 22 (15); and NCCLS, Methods for Dilution Antimicrobial Susceptibility Tests for Bacteria that Grow Aerobically; Approved Standard, Seventh Edition M7-A7. National Committee on Clinical Laboratory Standards, 2006. 26(2)).
Samples (dissolved in DMSO) were serially-diluted in 20% DMSO/saline and transferred (10 μL) in duplicate to 96 well flat bottom microplates.

[3] = promastigotes, 48 hours, Alamar Blue
[4] = promastigotes, 48 hours, Alamar Blue, read-out: L. donavani IC50

Compound | X more potent than Pentamidine [1] | L. donovani IC50 [1, 3] [mg/L] | IC50 [1, 4] [µM] | X more potent than Amphotericin B [2] | C. neoformans IC50 [2] [mg/L] | IC50 [2] [µM] | IC50 ([1]; Leishmania donovani, 48 h, read-out: L. donavani IC50 (mol/L)) [µM] | IC50 ([1]; Leishmania donovani, promastigotes, 48 hours, Alamar Blue, read-out: L. donovani IC50) [mg/L] | IC50 ([1]; Leishmania donovani, read-out: IC50 against L. donovani) [µM]
[Cu2(m-CB-Homocyclens)(OAc)2.5][PF6]1.5 [CDG035] | 0.21 | 26.37 | 25.2 | 0.08 | 3.260 | 3.11 | – | – | –
Clc1cc(CN2CCCNCCN(Cc3cc(Cl)nc(Cl)c3)CCCNCC2)cc(Cl)n1 [DJD29, (DCP)2Cyclam] | 0.28 | 9.76 | 18.8 | – | – | – | – | – | –
O.[Cl-].[Cl-].[Mn+2].c1ccc(CN2CCCNCCN(Cc3ccccc3)CCCNCC2)cc1 [TJH397A, Mn(Bn2Cyclam)Cl2•H2O] | 1.21 | 2.31 | 4.41 | 0.01 | 16.870 | 32.2 | – | – | –
Fe(Bn2Cyclam)Cl2•0.5 H2O [TJH398A] | 1.20 | 2.28 | 4.42 | – | – | – | – | – | –
N=C(N)c1ccc(OCCCCCOc2ccc(C(=N)N)cc2)cc1 [PENT, Pentamidine, reference compound] | 1.00 | – | – | – | – | – | 5.32 | 1.81 | 5.32
C1CNCCN2CCCNCCN(C1)CCC2.CC(=O)[O-].F[P-](F)(F)(F)(F)F.F[P-](F)(F)(F)(F)F.F[P-](F)(F)(F)(F)F.[Cu+2].[NH4+].[NH4+] [SLK40B, [Cu(H2PBCyclam)(OAc)]PF6•2NH4PF6] | – | – | – | 0.03 | 6.930 | 8.31 | – | – | –
[Fe2(m-cyclam-homocyclen)][FeCl4]2•7H2O [AW048] | – | – | – | 0.17 | 1.660 | 1.38 | – | – | –
[Cu2(p-SB-cyclam-cyclen)(OAc)1.2][PF6]2.8 [CMB018] | – | – | – | 0.09 | 3.020 | 2.67 | – | – | –
CN1CCN2CCN(CC1)CCN(Cc1nc3ccccc3[nH]1)CC2.[Cl-].[Cl-].[Mn+2] [SJA227, [Mn(CB-BI-cyclen)(Cl)2]] | – | – | – | 0.04 | 1.930 | 5.63 | – | – | –
CC(=O)[O-].CC(=O)[O-].F[P-](F)(F)(F)(F)F.F[P-](F)(F)(F)(F)F.O.O.[Zn+2].[Zn+2].c1cc(CN2CCNCCN3CCN(CC3)CC2)cc(CN2CCNCCN3CCN(CC3)CC2)c1 [OB37, [Zn2(m-SB-Cyclens)(OAc)2][PF6]2•2H2O] | – | – | – | 0.32 | ≤ 0.800 | – | – | – | –
[Co2(p-CB-Homocyclens)(OAc)2][PF6]2 [TJH379A] | – | – | – | 0.32 | ≤ 0.800 | 0.74 | – | – | –
[Cu(dcp1-SB-cyclen)(OAc)]PF6 [OB105] | – | – | – | 0.08 | 2.190 | 3.1 | – | – | –
CC(=O)[O-].CC(=O)[O-].CN1CCN2CCN(CC1)CCN(Cc1ccc(CN3CCN4CCN(C)CCN(CC4)CC3)cc1)CC2.F[P-](F)(F)(F)(F)F.F[P-](F)(F)(F)(F)F.[Cu+2].[Cu+2] [JAV06, [Cu2(p-CB-Cyclens)(OAc)2][PF6]2] | – | – | – | 0.02 | 10.900 | 10.3 | – | – | –
[Zn(Me1Pic1-CB-cyclen)](PF6)2 [KRW49] | – | – | – | 0.03 | 5.230 | 7.53 | – | – | –
CN1CCCN2CCN(CCCN(Cc3ccc(CN4CCCN5CCN(C)CCCN(CC5)CC4)cc3)CC2)CC1 [KS23, p-CB-cyclams] | – | – | – | 0.02 | 8.200 | 14.1 | – | – | –
[Ni2(p-SB-cyclam-cyclen)(OAc)][PF6]3•H2O [CMB017A] | – | – | – | 0.06 | 4.940 | 4.27 | – | – | –
CC(=O)[O-].CC(=O)[O-].F[P-](F)(F)(F)(F)F.F[P-](F)(F)(F)(F)F.[Ni+2].[Ni+2].c1cc(CN2CCCN3CCNCCCN(CC3)CC2)ccc1CN1CCCN2CCNCCCN(CC2)CC1 [TJH415B, [Ni2(H2-p-CB-cyclams)(OAc)2][PF6]2] | – | – | – | 0.30 | 0.850 | 0.787 | – | – | –
[Zn(H2PBCyclam)(OAc)]PF6•2.5NH4PF6 [SLK41] | – | – | – | 0.04 | 5.190 | 5.66 | – | – | –
[Ni2(m-SB-cyclam-cyclen)(OAc)][PF6]3 [CMB033] | – | – | – | 0.16 | 1.710 | 1.5 | – | – | –
[Cl][Fe-2]([Cl])([Cl])[Cl].[Cl][Fe-2]([Cl])([Cl])[Cl].[Fe+2].[Fe+2].c1cc(CN2CCCN3CCNCCCN(CC3)CC2)ccc1CN1CCCN2CCNCCCN(CC2)CC1 [TJH413B, [Fe2(H2-p-CB-cyclams)][FeCl4]2] | – | – | – | 0.03 | 7.380 | 6.95 | – | – | –
CN1CCCN2CCN(C)CCN(CC1)CC2.F[P-](F)(F)(F)(F)F.[Cl-].[Cl-].[Mn+3] [DLM10, [Mn(B13N4)Cl2]PF6] | – | – | – | 0.01 | 9.522 | 18.6 | – | – | –
[Cu(Bn2PBCyclen)(C2H3O2)0.4][PF6]1.6 [AW040] | – | – | – | 0.02 | 7.050 | 9.91 | – | – | –
CN1CCCN2CCN(C)CCCN(CC1)CC2.F[P-](F)(F)(F)(F)F.[Cl-].[Cl-].[Co+3] [SAH06#2, [Co(Bcyclam)Cl2]PF6] | – | – | – | 0.01 | 19.220 | 36.3 | – | – | –
CN1CCN2CCN(C)CCN(CC1)CC2.F[P-](F)(F)(F)(F)F.[Cl-].[Cl-].[Co+3] [DT06#2, [Co(Bcyclen)Cl2]PF6] | – | – | – | 0.04 | 3.390 | 6.78 | – | – | –
C1CNCCN2CCCNCCN(C1)CCC2.O.O.O.[Cl-].[Cl-].[Cl-].[Mn+3] [SLK37, Mn(H2PBCyclam)Cl3•3H2O] | – | – | – | 0.06 | 1.780 | 3.91 | – | – | –
[Co(Me1Pic1-CB-cyclen)](PF6)3 [KRW48] | – | – | – | 0.18 | 1.090 | 1.3 | – | – | –
C1CNCCN2CCCNCCN(C1)CCC2.CC(=O)[O-].F[P-](F)(F)(F)(F)F.F[P-](F)(F)(F)(F)F.F[P-](F)(F)(F)(F)F.[NH4+].[NH4+].[Ni+2] [SLK39B, [Ni(H2PBCyclam)(OAc)]PF6•2NH4PF6] | – | – | – | 0.03 | 5.890 | 7.1 | – | – | –
